According to US20230235378A1, “LZHEIMER'S DISEASE-SPECIFIC ALTERATIONS OF PROTEIN KINASE C EPSILON (PKC-EPSILON PROTEIN LEVELS” (WEST VIRGINIA UNIVERSITY BOARD OF GOVERNORS ON BEHALF OF …, priority 2010, published 2023):

Legend:
[1] = target: T1, PKCε (Homo sapiens, UniProt Q02156); assay: Protein kinase C assay with recombinant PKC epsilon isoform ([γ32P]ATP, histones); type: biochemical; conditions: lowest concentration tested (10 nM)
T1 construct: purchased Calbiochem (San Diego, Calif.)
T1 sequence (Q02156 1-737): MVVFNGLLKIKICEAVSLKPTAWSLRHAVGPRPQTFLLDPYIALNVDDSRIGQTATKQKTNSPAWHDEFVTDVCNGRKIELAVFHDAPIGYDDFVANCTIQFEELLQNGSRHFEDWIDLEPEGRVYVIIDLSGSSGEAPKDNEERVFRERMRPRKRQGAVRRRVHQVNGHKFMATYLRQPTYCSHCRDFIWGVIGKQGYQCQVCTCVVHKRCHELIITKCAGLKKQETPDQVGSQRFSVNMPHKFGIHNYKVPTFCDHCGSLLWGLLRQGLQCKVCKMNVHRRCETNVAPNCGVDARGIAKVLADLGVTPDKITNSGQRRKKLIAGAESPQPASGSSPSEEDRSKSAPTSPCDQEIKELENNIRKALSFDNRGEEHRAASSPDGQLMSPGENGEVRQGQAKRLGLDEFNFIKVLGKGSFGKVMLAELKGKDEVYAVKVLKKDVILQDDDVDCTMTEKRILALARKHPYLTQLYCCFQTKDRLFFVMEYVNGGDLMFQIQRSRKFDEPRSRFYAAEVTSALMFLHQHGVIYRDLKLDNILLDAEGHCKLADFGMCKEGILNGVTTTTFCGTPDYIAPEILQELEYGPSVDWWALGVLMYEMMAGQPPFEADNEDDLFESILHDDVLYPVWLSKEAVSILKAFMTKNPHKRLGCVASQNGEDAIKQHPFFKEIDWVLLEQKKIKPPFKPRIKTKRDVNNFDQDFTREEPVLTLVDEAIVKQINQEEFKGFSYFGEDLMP
Description: (§1) Protein Kinase C Assay. Recombinant PKC (1 ng of alpha or epsilon isoform) was mixed with the BR-101 (DCP-LA) in the presence of 10 micromolar histones, 5 mM CaCl2, 1.2 μg/μl phosphatidyl-L-serine, 0.18 μg/μl 1,2-dioctanoyl-sn-glycerol (DAG), 10 mM MgCl2, 20 mM HEPES (pH 7.4), 0.8 mM EDTA, 4 mM EGTA, 4% glycerol, 8 μg/ml aprotinin, 8 μg/ml leupeptin, and 2 mM benzamidine. 0.5 micro Ci [γ32P]ATP was added. The incubation mixture was incubated for 15 min at 37 degrees in a total volume of 10 microliters. The reaction was stopped by spotting the reaction mixtures on 1×2 cm strips of cellulose phosphate paper (Whatman P81) and immediately washing twice for 1 hr in 0.5% H3PO4. The cellulose phosphate strips were counted in a scintillation counter. In some experiments, phosphatidylserine, diacylglycerol, and/or calcium were removed.

[2] = target: T2, PKCα (Homo sapiens, UniProt P17252); assay: Protein kinase C assay with recombinant PKC alpha isoform ([γ32P]ATP, histones); type: biochemical; conditions: data not shown
T2 construct: purchased Calbiochem (San Diego, Calif.)
Description: as §1

[3] = tested on: Endothelin-converting enzyme (ECE); assay: ECE assay in neuroblastoma cells (fluorimetric, McaBK2); type: cell-based, human; conditions: bryostatin 0.27 nM, BR-101 1 μM, BR-111 1
Description: ECE Assay. SH-5757 neuroblastoma cells were incubated with bryostatin (0.27 nM), BR-101 (DCP-LA) (1 μM), and BR-111 (DHA-CP6) (1 Endothelin-converting enzyme (ECE) was measured fluorimetrically using the method of Johnson and Ahn, Anal. Biochem. 2000; 286: 112-118. A sample of cell homogenate (20 μl) was incubated in 50 mM MES-KOH, pH 6.0, 0.01% C 12E10 (polyoxyethylene-10-lauryl ether), and 15 μM McaBK2 (7-Methoxycoumarin-4-acetyl [Ala7-(2,4-Dinitrophenyl)Lys9]-bradykinin trifluoroacetate salt) (Sigma-Aldrich). After 60 min at 37° C., the reaction was quenched by adding trifluoroacetic acid to 0.5%. The sample was diluted to 1.4 ml with water and the fluorescence was measured at ex=334 nm, em=398 nm.

[4] = tested on: Aß; assay: Aß production in N2a neuroblastoma cells transfected with human APPSwe/PS1D (Aß 1-42 ELISA); type: cell-based, mouse
Description: Aß Measurement and Cell Viability Assay. Aß was measured using an Aß 1-42 human fluorimetric ELISA kit (Invitrogen) according to the manufacturer's instructions. Results were measured in a Biotek Synergy HT microplate reader. AlamarBlue and CyQuant NF (Invitrogen) according to the manufacturer's instructions.
To measure the effects of PKC activation on Aß production, we used mouse neuro2a (N2a) neuroblastoma cells transfected with human APPSwe/PS1D, which produce large quantities of Aβ. Petanceska et al., J. Neurochem. 1996; 74: 1878-84. […] With bryostatin, which activates PKC by binding to the diacylglycerol-binding site, the inhibition was biphasic, with concentrations of 20 nM or higher producing no net effect. This may be explained by the ability of this class of PKC activators to downregulate PKC when used at high concentrations.

[5] = target: T1, PKCε; conditions: Kanno et al.; cited from earlier work
[6] = target: T3, PKCγ (Homo sapiens, UniProt P05129); assay: PKC isozyme specificity: PKCγ; type: biochemical; conditions: 50-100 μM; data not shown
T3 construct: purchased Calbiochem
Description: Protein Kinase C Assay. Rat hippocampal cells were cultured and scraped in 0.2 ml homogenization buffer (20 mM Tris-HCl, pH 7.4, 50 mM NaF, 1 μg/ml leupeptin, and 0.1 mM PMSF) and homogenized by sonication in a Marsonix micro-probe sonicator (5 sec, 10 W). To measure PKC, 10 μl of cell homogenate or purified PKC isozyme (purchased from Calbiochem) was incubated for 15 min at 37° C. in the presence of 10 μM histones, 4.89 mM CaCl2, 1.2 μg/μl phosphatidyl-L-serine, 0.18 μg/μl 1,2-dioctanoyl-sn-glycerol, 10 mM MgCl2, 20 mM HEPES (pH 7.4), 0.8 mM EDTA, 4 mM EGTA, 4% glycerol, 8 μg/ml aprotinin, 8 μg/ml leupeptin, and 2 mM benzamidine. 0.5 μCi [γ-32P]ATP was added and 32P-phosphoprotein formation was measured by adsorption onto phosphocellulose as described previously. Nelson and Alkon, J. Neurochemistry. 1995; 65: 2350-57. For measurements of activation by BR-101 (DCP-LA) and similar compounds, PKC activity was measured in the absence of diacylglycerol and phosphatidylserine, as described by Kanno et al., and PKC δ, ε, η, and were measured in the absence of added EGTA and CaCl2, as described by Kanno et al., J. Lipid Res. 2006; 47: 1146-50. […]
To determine their PKC isozyme specificity, the new compounds were preincubated with purified PKC for five minutes and the PKC activity was measured radiometrically.

CCCCCC1CC1CC1CC1CCCCCCCC(=O)O (stereo not shown) [BR-101, 8-[2-(2-pentyl-cyclopropylmethyl)-cyclopropyl]-octanoic acid]
activation of PKCε [1]: 2.75 fold
effect on PKCα [2]: not affected
change in ECE activity [3]: sustained increase
levels of both intracellular and secreted Aß ([4]; 24 h incubation, various concentrations): markedly reduced
concentration dependence of Aß inhibition ([4]; concentrations up to 10 to 100 μM, no evidence of downregulation at higher concentrations): monotonically increasing inhibition
potency for PKCε over other PKC isozymes [5]: greater than 7 fold
effect on PKCγ at higher concentrations [6]: activated
